Values of other authors in patent US7521440B2, “Targeted oxidative therapeutic formulation” (Torquin, LLC, priority 2001, dated 2009).

How the values were obtained:
[1] = tested on: peroxide-sensitive E. coli; details: infused into the blood of infected rabbits
E. coli = details: increasing peroxide concentration ex-vivo in rabbit or human blood

OO [hydrogen peroxide, Hydrogen peroxide]
bactericidal effect [1]: no bactericidal effect
direct bactericidal activity (E. coli): no evidence of direct bactericidal activity
